Data as given in patent EP0385850A2, “Benzimidazole and azabenzimidazole derivatives, process for their preparation, synthesis intermediates, pharmaceutical compositions containing them, useful for the treatment of cardiovascular diseases and duodenal ulcers” (LABORATOIRES UPSA, priority 1989, dated 1990).

Assays:
rats mâles de souche OFA [1] = experiment: anti-ulcer activity against a necrotising agent (e.g. absolute ethanol), oral, rat; format: in vivo; conditions: v.o., 30 min before necrotising agent, stomachs removed 1 h after, dose reducing lesions by 50 %, determined graphically, read-out: activité anti-ulcère vis à vis d'un agent nécrosant DA 50 Mg/Kg v.o.
Description: (§1) Des lots de 10 à 30 rats mâles de souche OFA (Iffa Credo), pesant 160-180 g, sont mis à la diète hydrique 24 h avant l'administration orale du produit étudié. Trente minutes plus tard, un agent ulcérigène médicamenteux ou un agent nécrosant (exemple : éthanol absolu) est administré par voie orale à des doses qui entraînent chez les animaux témoins une ulcération gastrique maximale. Les estomacs sont prélevés, selon le test, respectivement 6 et 1 h après le dernier traitement. Les lésions gastriques sont alors évaluées macroscopiquement (cotation et mesure de l'ampleur des ulcères).
(§2) Ils sont exprimés sous forme de dose active 50 déterminée graphiquement. Cette dose exprime la dose nécessaire pour réduire de 50 % les lésions ulcéreuses observées chez les animaux témoins.

rats mâles de souche OFA [2] = experiment: anti-ulcer activity against a non-steroidal anti-inflammatory (ulcerogenic drug), oral, rat; format: in vivo; conditions: v.o., 30 min before ulcerogenic drug, stomachs removed 6 h after, dose reducing lesions by 50 %, determined graphically, read-out: activité anti-ulcère vis à vis d'un anti-inflammatoire non stéroïdien DA 50 Mg/Kg v.o.
Description: as §1, §2

Structure (SMILES)	ED50 (rats mâles de souche OFA [1]) [mg/kg]	ED50 (rats mâles de souche OFA [2]) [mg/kg]
Cn1c(=S)[nH]c2ccc(-n3ccnc3)cc21 [Exemple 124, (imidazolyl-1)-5 méthyl-3 benzimidazole thione-2]	4.5	
CSc1nc2ccc(-n3ccnc3)cc2[nH]1 [Exemple 128, (Imidazolyl-1)-5 (méthylthio)-2 benzimidazole]	4.5	18.3
C=CCSc1nc2ccc(-n3ccnc3)cc2[nH]1 [Exemple 129, (imidazolyl-1)-5 (allylthio)-2 benzimidazole]	0.33	
C#CCSc1nc2ccc(-n3ccnc3)cc2[nH]1 [Exemple 130, (Imidazolyl-1)-5 (propargylthio)-2 benzimidazole]	0.48	9.24
